Measured values published in paper PMC12730667, “A Scorpion Peptide Exerts Selective Anti-Leukemia Effects Through Disrupting Cell Membranes and Triggering Bax/Bcl-2-Related Apoptosis Pathway” (Biomolecules, 2025).
Where no end group is shown, it is not given here.

How the values were obtained:
Primary PBMC = format: cell-based; conditions: 24 h
Experimental: Briefly, fresh anticoagulated whole blood was collected and diluted with 1× PBS buffer at a ratio of 1:1, followed by gentle mixing. Then, an appropriate volume of mononuclear cell separation medium was added to a sterile centrifuge tube, and the diluted blood sample was carefully layered onto the surface of the separation medium (separation medium–diluted whole blood = 1:2) while maintaining a clear interface between the two layers. Then, it was centrifuged at 450× g for 20–30 min at room temperature. After centrifugation, the plasma layer was aspirated and discarded, then the PBMC layer was carefully collected (i.e., the buffy coat) and transferred to a 15 mL centrifuge tube. […] The isolated PBMCs were then ready for subsequent experiments.
To determine the effects of Lpep3 on cell cytotoxicity, the Cell Counting Kit-8 (CCK8) assay was performed according to the manufacturer’s protocol. […] The absorbance at 450 nm was measured using a microplate reader (BioTek, Winooski, VT, USA). […] IC50 values were calculated using non-linear regression analysis of the dose–response curves in GraphPad Prism (8.0.2). The percentage of cellular viability was calculated using the following equation: Cell Viability %=ODSample−ODBlank/ODControl−ODBlank×100%

L1210 cells = conditions: 24 h
Experimental: (§1) All cell lines, including CT26.WT, LLC, MV-4-11, HCT-116, ID8, Jurkat, L1210, OVCAR-8, YAC-1, MDA-MB-231, MEL, Mia PaCa-2, B16-F10, HepG2, A549 Hela, 4T1, Panco2, K562, RAJI, A375, HL-60, H1975, HaCat, HUVEC, and HDF, were obtained from the National Collection of Authenticated Cell Cultures (Shanghai, China) or saved in the lab and cultured in RPMI-1640 or DMEM or IMEM medium supplemented with 10% (v/v) fetal bovine serum (FBS), 100 units/mL penicillin, 100 µg/mL streptomycin, and 0.05% (v/v) L-glutamine serum in a humidified atmosphere of 5% CO2 at 37 °C.
(§2) To determine the effects of Lpep3 on cell cytotoxicity, the Cell Counting Kit-8 (CCK8) assay was performed according to the manufacturer’s protocol. Cells were seeded at 8 × 10^3 cells per well and treated with Lpep3 at different concentrations (100, 50, 25, 12.5, 6.25, 3.125, 1.56, 0.78, 0.39 μM) for 24 h. Subsequently, 10 μL of CCK8 reagent (Abbkine, Wuhan, China) was added to each well and incubated for 1–4 h at 37 °C. The absorbance at 450 nm was measured using a microplate reader (BioTek, Winooski, VT, USA). The half-maximal inhibitory concentration (IC50) was defined as the peptide concentration required to reduce cell viability by 50% relative to the untreated control. IC50 values were calculated using non-linear regression analysis of the dose–response curves in GraphPad Prism (8.0.2). The percentage of cellular viability was calculated using the following equation: Cell Viability %=ODSample−ODBlank/ODControl−ODBlank×100%

MEL cells = conditions: 24 h
Experimental: as §1, §2

YAC-1 cells = conditions: 24 h
Experimental: as §1, §2

HDF cells = format: cell-based; conditions: 24 h
Experimental: as §1, §2

CT26.WT cells = format: cell-based; conditions: 24 h
Experimental: as §1, §2

B16-F10 cells = format: cell-based; conditions: 24 h
Experimental: as §1, §2

Panc02 cells = format: cell-based; conditions: 24 h
Experimental: as §1, §2

4T1 cells = format: cell-based; conditions: 24 h
Experimental: as §1, §2

H1975 cells = format: cell-based; conditions: 24 h
Experimental: as §1, §2

HUVEC cells = format: cell-based; conditions: 24 h
Experimental: as §1, §2

ID8 cells = format: cell-based; conditions: 24 h
Experimental: as §1, §2

HaCaT cells = format: cell-based; conditions: 24 h
Experimental: as §1, §2

LLC cells = format: cell-based; conditions: 24 h
Experimental: as §1, §2

HeLa cells = format: cell-based, human; conditions: 24 h
Experimental: as §1, §2

HCT116 cells = format: cell-based, human; conditions: 24 h
Experimental: as §1, §2

A549 cells = format: cell-based, human; conditions: 24 h
Experimental: as §1, §2

HL-60 cells = format: cell-based, human; conditions: 24 h
Experimental: as §1, §2

A375 cells = format: cell-based, human; conditions: 24 h
Experimental: as §1, §2

OVCAR-8 cells = format: cell-based, human; conditions: 24 h
Experimental: as §1, §2

Jurkat cells = format: cell-based, human; conditions: 24 h
Experimental: as §1, §2

K562 cells = format: cell-based, human
Experimental: as §1, §2

MDA-MB-231 cells = format: cell-based, human; conditions: 24 h
Experimental: as §1, §2

MV-4-11 cells = format: cell-based, human
Experimental: as §1, §2

Mia PaCa-2 cells = format: cell-based, human; conditions: 24 h
Experimental: as §1, §2

Hep G2 cells = format: cell-based, human; conditions: 24 h
Experimental: as §1, §2

solid tumor cell lines = assay: CCK-8 IC50, solid cancer cell lines as a group; format: cell-based; conditions: range over hepatocellular, pancreatic, breast, cervical, lung, colorectal, ovarian and melanoma cell lines, CCK-8, 24 h; read-out: IC50 values in solid cancers
Experimental: as §2
Based on the above results, subsequent studies will focus on determining the IC50 of Lpep3 to accurately quantify the intensity of its anticancer activity. […] The ovarian cell was the most sensitive in solid tumor cell lines.

[1] = system: 24 distinct cancer cell lines; format: cell-based; conditions: CCK-8, 5, 10 and 20 μM
Experimental: as §1
as §2, with “Subsequently, 10 μL of CCK8 reagent (Abbkine, Wuhan, China) was added to each well and incubated for 1–4 h at 37 °C.” left out, “The half-maximal inhibitory concentration (IC50) was defined as the peptide concentration required to reduce cell viability by 50% relative to the untreated control.” left out
To comprehensively characterize the anticancer activity of peptides Lpep1–Lpep7, their cytotoxic effects across 24 distinct cancer cell lines were assessed using CCK-8 assays. […]

red blood cells = assay: Hemolytic activity assay; format: cell-based; conditions: red blood cells in PBS, 37 °C, 1 h, absorbance 450 nm, 0.1% Triton X-100 as positive control, Figure S2B
Experimental: A total of 500 μL fresh whole blood was collected and diluted with 5 mL PBS and then centrifuged at 1000 rpm for 5 min to remove the plasma. The pellet was washed again by adding PBS to a final volume of approximately 10 mL, followed by centrifuging at 1000 rpm for 5 min. This washing step was repeated until the supernatant became clear. The resulting red blood cell pellet was then resuspended in 10 mL PBS. For the hemolysis assay, 200 μL suspension was mixed with 200 μL Lpep3 with different concentrations (100, 50, 25, 12.5, 6.25, 3.125, 1.57, 0.78, 0.39 μM). The positive control consisted of 200 μL suspension mixed with 200 μL 0.1% Triton X-100, while the negative control contained 200 μL RBC suspension and 200 μL PBS. All mixtures were incubated at 37 °C for 1 h, followed by centrifugation at 12,000 rpm for 5 min. The supernatant was collected and measured at 450 nm. The hemolysis rate was calculated using the following equation: Hemolysis rate%=ODSample−ODnegative/ODPositive−ODnagative×100%

non-cancer cells = format: cell-based; conditions: 24 h
Experimental: as §2
The lowest values approached 0.6 μM in MV-4-11. […] Based on this discrepancy, concentrations of 0.5 μM and 1 μM were selected for subsequent experiments.

[2] = In vivo biosafety in tumor-bearing nude mice (body weight, blood, liver/kidney function, H&E); design: species or system mouse; conditions: 10 mg/kg i.p. every other day, 6 injections
From the text: Healthy male BALB/c nu/nu nude mice (aged 4–5 weeks) were purchased from Slac & Jingda Laboratory Animal Co., Ltd. (Changsha, China). All animal experiments were strictly approved by the Institutional Animal Care and Use Committee (IACUC) of Hunan Normal University, and the Guidelines for the Care and Use of Laboratory Animals issued by the National Institutes of Health (NIH, Bethesda, MD, USA) were strictly adhered to throughout the experiment. MV-4-11 cells (5 × 10^6 cells resuspended in a 1:1 mixture of Matrigel and PBS) were subcutaneously (s.c.) injected into the right axillary fossa of each mouse. When the tumor volume reached 100–150 mm^3, all mice were randomly divided into two groups (n = 4). Mice in the experimental group were intraperitoneally injected with 50 μL of Lpep3 (10 mg/kg), while those in the control group received an intraperitoneal injection of an equal volume of sterile PBS. The day of the first injection was defined as Day 0. Injections were administered every other day, with a total of 6 administrations. Additionally, the tumor volume and body weight of mice in each group were monitored at regular intervals. After the experiment, major organs were dissected, fixed in 4% paraformaldehyde (PFA), and subjected to histological examination. Major organs were further stained with hematoxylin and eosin (H&E) for pathological analysis.
After euthanasia, whole blood was collected and allowed to stand at 4 °C for 1 h and then centrifuged at 3000× g for 10 min to obtain serum. Serum biochemical and liver/kidney function parameters, including RBC, NEU, HGB, ALT, AST, BUN, and creatinine, were analyzed using an automated chemistry analyzer (TBA-40FR, Tochigi, Japan) according to the manufacturer’s instructions.

Raji cells = format: cell-based, human; conditions: Raji, 5, 10 and 20 μM, CCK-8
Experimental: as §1
as §2, with “Cells were seeded at 8 × 10^3 cells per well and treated with Lpep3 at different concentrations (100, 50, 25, 12.5, 6.25, 3.125, 1.56, 0.78, 0.39 μM) for 24 h.” left out

[3] = Solubility of the synthesized peptide in PBS and DMSO; format: physicochemical; conditions: peptide excluded from experimental verification
From the text: Based on the anticancer prediction model CNBT-ACPred established by our team previously, there are 276 toxic animal polypeptides whose average prediction score is greater than 0.73. Then, based on the top prediction scores and species diversity, seven candidate peptides were chosen for subsequent experimental validation (Table 2).

## FFGSLLSLGSKLLPSVFKLFQRKKE [Lpep3]
Primary PBMC
  IC50: 3810 nM
L1210 cells
  IC50: 2050 nM
MEL cells
  IC50: 563 nM
YAC-1 cells
  IC50: 728 nM
HDF cells
  IC50: 4520 nM
CT26.WT cells
  IC50: 2000 nM
B16-F10 cells
  IC50: 11800 nM
Panc02 cells
  IC50: 2870 nM
4T1 cells
  IC50: 3050 nM
H1975 cells
  IC50: 3040 nM
HUVEC cells
  IC50: 6420 nM
ID8 cells
  IC50: 1990 nM
HaCaT cells
  IC50: 5800 nM
LLC cells
  IC50: 2320 nM
HeLa cells
  IC50: 2720 nM
HeLa cells; 5 μM
  cell viability: ~0%
HCT116 cells
  IC50: 3200 nM
A549 cells
  IC50: 2720 nM
HL-60 cells
  IC50: 1490 nM
A375 cells
  IC50: 2230 nM
A375 cells; 5 μM
  cell viability: ~0%
OVCAR-8 cells
  IC50: 1300 nM
OVCAR-8 cells; 5 μM
  cell viability: ~0%
Jurkat cells
  IC50: 554 nM
Jurkat cells; 5 μM
  cell viability: ~0%
K562 cells; 24 h
  IC50: 656 nM
K562 cells; 24 h, 5 μM
  cell viability: ~0%
MDA-MB-231 cells
  IC50: 2320 nM
MDA-MB-231 cells; 5 μM
  cell viability: ~0%
MV-4-11 cells; 24 h
  IC50: 600 nM
MV-4-11 cells; 24 h, 5 μM
  cell viability: ~0%
Mia PaCa-2 cells
  IC50: 5400 nM
Hep G2 cells
  IC50: 6990 nM
Solid tumor cell lines
  IC50: 1300 to 11000 nM
[1]
  cytotoxic effects across 24 distinct cancer cell lines: potent, broad-spectrum cytotoxic peptide
Red blood cells
  concentration at which a 50% hemolysis rate was observed: 12.5 µM
non-cancer cells
  IC50: ~5000 nM
[2]; n = 4, serum
  liver and kidney function indices (AST, ALT, UA, CRE): remained within the normal range
[2]; n = 4, vs PBS
  blood routine indices (RBC, HGB, Neu): no obvious difference
  body weight: no obvious difference
[2]; vs control group
  H&E staining of liver, spleen and kidney: no obvious damage

## FVQWFSKFLGRIL [Lpep7, 13-residue candidate peptide, species Rana temporaria]
K562 cells; K562, 5, 10 and 20 μM, CCK-8
  cytotoxic activity: moderate activity
MV-4-11 cells; MV-4-11, 5, 10 and 20 μM, CCK-8
  cytotoxic activity: moderate activity
Raji cells
  cytotoxic activity: moderate activity

## GLFDIAKKVIGVIGSL [Lpep4, 16-residue candidate peptide, species Ranoidea raniformis]
[3]
  solubility in PBS and DMSO: poor solubility
